{
  "source": "patent US8814930B2",
  "about": "“Biodegradable endoprosthesis and methods for their fabrication” (Elixir Medical Corporation, priority 2007, dated 2014)",
  "assay": "Pharmacokinetic release profile of novolimus from a stent (FIG. 35)",
  "format": "in vivo",
  "data": [
    {"compound": "CO[C@@H]1C[C@H](C[C@@H](C)[C@@H]2CC(=O)[C@H](C)/C=C(\\C)[C@@H](O)[C@@H](OC)C(=O)[C@H](C)C[C@H](C)/C=C/C=C/C=C(\\C)[C@@H](O)C[C@@H]3CC[C@@H](C)[C@@](O)(O3)C(=O)C(=O)N3CCCC[C@H]3C(=O)O2)CC[C@H]1O", "note": "[novolimus, 16-O-desmethyl-rapamycin]", "values": [
      {"measurement": "therapeutic tissue drug concentration", "setting": "at 90 days", "value": 0.5, "unit": "ng/mg"},
      {"measurement": "drug released", "setting": "in one month, from a stent", "value": "over 85%"}
    ]}
  ]
}
